# Data published in PubChem BioAssay AID256 (DTP/NCI, 2004).
# Where “and” joins values, the source holds several entries; their conditions need not be identical. Equal values may be shown once. Inconclusive results and toxic doses are left out.
# Tested on: CD2F1 mice, L1210 leukemia ip, survival T/C
# Assay: NCI In Vivo Anticancer Drug Screen. Data for tumor model L1210 Leukemia (intraperitoneal) in CD2F1 (CDF1) mice
# Settings: endpoint: mean survival time, higher = longer survival
# Method in brief: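 Transplantable tumor in mice; compound-treated vs vehicle-treated groups. Read-out = treated/control ratio of the measured endpoint.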
# [1] = dose: 100.0 mg/kg/injection, schedule: Q01DX009 (ip), vehicle: saline with Tween-80
# [2] = dose: 200.0 mg/kg/injection, schedule: Q04DX003 (ip), vehicle: saline with Tween-80
# [3] = dose: 12.5 mg/kg/injection, schedule: Q01DX009 (ip), vehicle: saline with Tween-80
# [4] = dose: 25.0 mg/kg/injection, schedule: Q01DX009 (ip), vehicle: saline with Tween-80
compound,measurement,setting,value
Nc1nc(Cl)c2[nH]cnc2n1,T/C,"dose: 13.3 mg/kg/injection, schedule: Q01DX009 (ip), vehicle: saline with Tween-80",153 % of control
same,T/C,"dose: 44.0 mg/kg/injection, schedule: Q01DX009 (ip), vehicle: saline with Tween-80",151 % of control and 154 % of control
same,T/C,"dose: 60.0 mg/kg/injection, schedule: Q04DX003 (ip), vehicle: saline with Tween-80",181 % of control
same,T/C,"dose: 66.0 mg/kg/injection, schedule: Q01DX009 (ip), vehicle: saline with Tween-80",100 % of control
same,T/C,"dose: 75.0 mg/kg/injection, schedule: Q04DX003 (ip), vehicle: saline with Tween-80",160 % of control
same,T/C,"dose: 88.0 mg/kg/injection, schedule: Q01DX009 (ip), vehicle: saline with Tween-80",116 % of control
same,T/C,[1],111 % of control
same,T/C,"dose: 132.0 mg/kg/injection, schedule: Q01DX009 (ip), vehicle: saline with Tween-80",113 % of control
same,T/C,"dose: 150.0 mg/kg/injection, schedule: Q01DX009 (ip), vehicle: saline with Tween-80",86 % of control
same,T/C,"dose: 150.0 mg/kg/injection, schedule: Q04DX003 (ip), vehicle: saline with Tween-80",156 % of control and 168 % of control
same,T/C,[2],122 % of control
same,T/C,"dose: 300.0 mg/kg/injection, schedule: Q01DX009 (ip), vehicle: saline with Tween-80",111 % of control
Nc1ccc(C(O)(C(F)(F)F)C(F)(F)F)c(C(=O)O)c1,T/C,"dose: 100.0 mg/kg/injection, schedule: Q01DX009 (ip), vehicle: other",106 % of control
same,T/C,"dose: 200.0 mg/kg/injection, schedule: Q01DX009 (ip), vehicle: other",106 % of control
same,T/C,"dose: 400.0 mg/kg/injection, schedule: Q01DX009 (ip), vehicle: other",102 % of control
OC1(CSc2ccccc2)CCCCC1,T/C,[3],98 % of control
same,T/C,[4],101 % of control
same,T/C,"dose: 50.0 mg/kg/injection, schedule: Q01DX009 (ip), vehicle: saline with Tween-80",102 % of control
same,T/C,[1],102 % of control
same,T/C,"dose: 200.0 mg/kg/injection, schedule: Q01DX009 (ip), vehicle: saline with Tween-80",104 % of control
same,T/C,"dose: 400.0 mg/kg/injection, schedule: Q01DX009 (ip), vehicle: saline with Tween-80",101 % of control
CCCCS/C=C\C(=O)OCC,T/C,"dose: 100.0 mg/kg/injection, schedule: Q04DX002 (ip), vehicle: saline with Tween-80",102 % of control
same,T/C,"dose: 400.0 mg/kg/injection, schedule: Q04DX002 (ip), vehicle: saline with Tween-80",102 % of control
COC(=O)C1=CCC[N+](C)(C)C1,T/C,"dose: 1.56 mg/kg/injection, schedule: Q04DX002 (ip), vehicle: saline",93 % of control
same,T/C,"dose: 3.13 mg/kg/injection, schedule: Q04DX002 (ip), vehicle: saline",93 % of control
same,T/C,"dose: 6.25 mg/kg/injection, schedule: Q04DX002 (ip), vehicle: saline",93 % of control and 105 % of control
COc1c(CBr)c(CBr)c(OC)c2ccccc12,T/C,"dose: 100.0 mg/kg/injection, schedule: Q04DX003 (ip), vehicle: saline with Tween-80",101 % of control
same,T/C,[2],100 % of control
same,T/C,"dose: 400.0 mg/kg/injection, schedule: Q04DX003 (ip), vehicle: saline with Tween-80",101 % of control
O=C1C(Br)=C(Br)C(=O)C1(Br)Br,T/C,"dose: 6.25 mg/kg/injection, schedule: Q01DX009 (ip), vehicle: saline with Tween-80",97 % of control
same,T/C,[3],103 % of control
same,T/C,[4],92 % of control
O.[Cl][Pt].[S-]CCN1CCOCC1,T/C,"dose: 12.5 mg/kg/injection, schedule: Q04DX003 (ip), vehicle: distilled water + Tween-80",96 % of control
same,T/C,"dose: 25.0 mg/kg/injection, schedule: Q04DX003 (ip), vehicle: distilled water + Tween-80",98 % of control
same,T/C,"dose: 50.0 mg/kg/injection, schedule: Q04DX003 (ip), vehicle: distilled water + Tween-80",102 % of control
same,T/C,"dose: 100.0 mg/kg/injection, schedule: Q04DX003 (ip), vehicle: distilled water + Tween-80",98 % of control
same,T/C,"dose: 200.0 mg/kg/injection, schedule: Q04DX003 (ip), vehicle: distilled water + Tween-80",96 % of control
CN(C)c1nc(Cl)cc2c1ncn2C1OC(CO)C(O)C1O (stereo not drawn),T/C,"dose: 100.0 mg/kg/injection, schedule: Q01DX005 (ip), vehicle: saline",117 % of control
